What all share (type): in vivo
One experiment relates to Kochia (Kochia scoparia). As to the kind of experiment: Test A preemergence. Conditions: Bassia scoparia, pre-emergence, 240 h; for pest or weed control at 125 g/ha: 125 g ai/ha, Preemergence, visual injury rating after approximately 10 d, read-out: Kochia plant response rating (0 to 100 scale, 0 is no effect, 100 is complete control); for pest or weed control at 500 g/ha: 500 g ai/ha, preemergence, visual injury rating about 10 d after treatment, 0 to 100 scale (0 no effect, 100 complete control), read-out: Kochia plant response rating. In short, it runs like this:
(§1)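 Preemergence soil spray on seeded pots or post-emergence spray on 1–2 leaf plants, in loam–sand blend. Greenhouse ~10 d. Visual rating 0–100 against untreated plants.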

In experiment [1] the test system is barnyardgrass (Echinochloa crus-galli). Put plainly: Test A preemergence. Conditions: Echinochloa crus-galli, pre-emergence, 240 h; for pest or weed control at 125 g/ha: 125 g ai/ha, Preemergence, visual injury rating after approximately 10 d, read-out: Barnyardgrass plant response rating (0 to 100 scale, 0 is no effect, 100 is complete control); for pest or weed control at 500 g/ha: 500 g ai/ha, preemergence, visual injury rating about 10 d after treatment, 0 to 100 scale (0 no effect, 100 complete control), read-out: Barnyardgrass plant response rating. In outline:
as §1

Experiment [2] deals with giant foxtail (Setaria faberii). Put plainly: Test A preemergence. To be noted: Setaria faberi, pre-emergence, 240 h; for pest or weed control at 125 g/ha: 125 g ai/ha, Preemergence, visual injury rating after approximately 10 d, read-out: Foxtail, Giant plant response rating (0 to 100 scale, 0 is no effect, 100 is complete control); for pest or weed control at 500 g/ha: 500 g ai/ha, preemergence, visual injury rating about 10 d after treatment, 0 to 100 scale (0 no effect, 100 complete control), read-out: Foxtail, Giant plant response rating. In short, it runs like this: as §1

In experiment [3] the test system is pigweed (Amaranthus retroflexus). As to the kind of experiment: Test A preemergence. Conditions: Amaranthus retroflexus, pre-emergence, 240 h; for pest or weed control at 125 g/ha: 125 g ai/ha, Preemergence, visual injury rating after approximately 10 d, read-out: Pigweed plant response rating (0 to 100 scale, 0 is no effect, 100 is complete control); for pest or weed control at 500 g/ha: 500 g ai/ha, preemergence, visual injury rating about 10 d after treatment, 0 to 100 scale (0 no effect, 100 complete control), read-out: Pigweed plant response rating.

Experiment [4] concerns ragweed (common ragweed, Ambrosia elatior). Put plainly: Test A preemergence. Conditions: Ambrosia artemisiifolia, pre-emergence, 240 h; for pest or weed control at 125 g/ha: 125 g ai/ha, Preemergence, visual injury rating after approximately 10 d, read-out: Ragweed plant response rating (0 to 100 scale, 0 is no effect, 100 is complete control); for pest or weed control at 500 g/ha: 500 g ai/ha, preemergence, visual injury rating about 10 d after treatment, 0 to 100 scale (0 no effect, 100 complete control), read-out: Ragweed plant response rating. In short, it runs like this: as §1

The test system of experiment [5] is ryegrass, Italian (Italian ryegrass, Lolium multiflorum). As to the kind of experiment: Test A preemergence. Conditions: Lolium multiflorum, pre-emergence, 240 h; for pest or weed control at 125 g/ha: 125 g ai/ha, Preemergence, visual injury rating after approximately 10 d, read-out: Ryegrass, Italian plant response rating (0 to 100 scale, 0 is no effect, 100 is complete control); for pest or weed control at 500 g/ha: 500 g ai/ha, preemergence, visual injury rating about 10 d after treatment, 0 to 100 scale (0 no effect, 100 complete control), read-out: Ryegrass, Italian plant response rating. In outline: as §1

Experiment [6] relates to Galium (catchweed bedstraw, Galium aparine). Put plainly: Test A postemergence. Conditions: Galium, post-emergence, 240 h, read-out: Plant response rating, Galium; for pest or weed control at 125 g/ha: 125 g ai/ha, Postemergence, visual injury after approximately 10 d, 0 to 100 scale where 0 is no effect and 100 is complete control. In outline:
as §1

The subject of experiment [7] is barnyardgrass (Echinochloa crus-galli). Put plainly: Test A postemergence. To be noted: Echinochloa crus-galli, post-emergence, 240 h, read-out: Plant response rating, Barnyardgrass; for pest or weed control at 125 g/ha: 125 g ai/ha, Postemergence, visual injury after approximately 10 d, 0 to 100 scale where 0 is no effect and 100 is complete control. In outline:
as §1

In a further experiment the test system is corn (Zea mays). Put plainly: Test A postemergence. Conditions: Zea mays, post-emergence, 240 h; for Corn plant response rating (crop injury, 0 = no effect, 100 = complete kill) at 125 g/ha: 125 g ai/ha, Postemergence, visual injury after approximately 10 d, 0 to 100 scale where 0 is no effect and 100 is complete control. In outline: as §1
The test system of experiment [8] is ragweed (common ragweed, Ambrosia elatior). Put plainly: Test A postemergence. To be noted: Ambrosia artemisiifolia, post-emergence, 240 h, read-out: Plant response rating, Ragweed; for pest or weed control at 125 g/ha: 125 g ai/ha, Postemergence, visual injury after approximately 10 d, 0 to 100 scale where 0 is no effect and 100 is complete control. In outline:
as §1

Experiment [9] relates to barnyardgrass (Echinochloa crus-galli). As to the kind of experiment: Test B flooded paddy test. Conditions: Echinochloa crus-galli, 250 g ai/ha, Flood, read-out: Barnyardgrass plant response rating. In short, it runs like this:
(§2)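 Response scored visually against untreated controls, 0 = no effect and 100 = complete control, 13–15 d after treatment in the greenhouse. Compounds added to paddy water held 3 cm above soil surface. Treatment given at 2-leaf stage.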

Experiment [10] deals with ducksalad (Heteranthera limosa). As to the kind of experiment: Test B flooded paddy test. To be noted: Heteranthera limosa, 250 g ai/ha, Flood, read-out: Ducksalad plant response rating. In outline:
as §2

In the next experiment the test system is rice (Oryra sativa). Put plainly: Test B flooded paddy test. To be noted: Oryza sativa, 250 g ai/ha, Flood, read-out: Rice plant response rating. In short, it runs like this: as §2
Experiment [11] concerns sedge, umbrella (small-flower umbrella sedge, Cyperus difformis). Put plainly: Test B flooded paddy test. Conditions: Cyperus difformis, 250 g ai/ha, Flood, read-out: Sedge, Umbrella plant response rating. In short, it runs like this: as §2
Setting [12] is: 500 g ai/ha, postemergence, visual injury, 0 to 100 scale (0 no effect, 100 complete control), approx. 10 d.
The mark [13] stands for this setting: 0 to 100 scale where 0 is no effect and 100 is complete control.
Where [14] appears, read: scale of 0 to 100 where 0 is no effect and 100 is complete control.

From patent US12077503B2, “Substituted cyclic amides and their use as herbicides” (FMC CORPORATION, priority 2015, dated 2024) come the findings set out here.

Where two headings read alike, the source gives them in different places.

With `Cc1ccc([C@H]2CN(C)C(=O)[C@@H]2C(=O)Nc2cccc(F)c2F)cc1Cl` [Compound 1013], the pest or weed control at 125 g/ha in the experiment on Kochia (Kochia scoparia) was found to be 50%; in experiment [1], 90%; in [2], 90%; in experiment [3], 30%; in experiment [4] it was 0%; in experiment [5], 30%. Besides, the pest or weed control at 125 g/ha in [6] was 70%; in experiment [7], 90%; in [8], 0%. Further, the pest or weed control at 500 g/ha with Kochia (Kochia scoparia) is 70%; in [1], 90%; in experiment [2], 90%; in experiment [3], 40%; in [4], 0%; in [5], 70%. The results for the pest or weed control at 500 g/ha in experiment [6] (setting [12]), in experiment [7] (setting [12]) and in [8] (setting [12]) were 70%, 90% and 40%, respectively. Moreover, in the experiment with corn (Zea mays), the Corn plant response rating (crop injury, 0 = no effect, 100 = complete kill) at 125 g/ha came out at 80%. The compound further displayed a Corn plant response rating (crop injury, 0 = no effect, 100 = complete kill) at 500 g/ha in the experiment on corn (Zea mays) (setting [12]) of 90%. Moreover, the pest or weed control at 250 g/ha in experiment [9] (setting [13]) was 55%; in experiment [10] (setting [13]), 100%; with rice (Oryra sativa) (setting [13]), 70%; in experiment [11] (setting [13]), 100%.

Turning to `CN1CC[C@H](c2ccc(OC(F)(F)F)cc2)[C@@H](C(=O)Nc2ccccc2C(F)(F)F)C1=O` [Compound 998], the pest or weed control at 125 g/ha (in the experiment with Kochia (Kochia scoparia); in experiment [1]; in experiment [2]; in experiment [3]; in experiment [4]; in experiment [5]) was 0% in each case. The pest or weed control at 125 g/ha in experiment [6], in experiment [7] and in experiment [8] was 0% each time. The pest or weed control at 500 g/ha (in the experiment on Kochia (Kochia scoparia); in experiment [1]; in experiment [2]; in experiment [3]; in [4]; in experiment [5]) was 0% throughout. This compound also had a Corn plant response rating (crop injury, 0 = no effect, 100 = complete kill) at 125 g/ha in the experiment with corn (Zea mays) of 0%. The pest or weed control at 250 g/ha (in experiment [9] (setting [14]); in [10] (setting [14]); in the experiment on rice (Oryra sativa) (setting [14]); in experiment [11] (setting [13])) was 0% throughout.

Take `CSc1ccccc1NC(=O)[C@H]1C(=O)NC[C@@H]1c1cc(F)cc(Cl)c1` [Compound 977]: the pest or weed control at 125 g/ha was determined as 90% in the experiment with Kochia (Kochia scoparia); 90% in experiment [1]; 90% in experiment [2]; 40% in experiment [3]; 70% in experiment [4]; 0% in experiment [5]. Further, the pest or weed control at 125 g/ha in [6] came out at 40%; in [8], 20%. Further, the pest or weed control at 500 g/ha is 90% with Kochia (Kochia scoparia); 90% in experiment [1]; 90% in experiment [2]; 70% in experiment [3]; 100% in experiment [4]; 40% in [5]. The compound also gave a Corn plant response rating (crop injury, 0 = no effect, 100 = complete kill) at 125 g/ha in the experiment on corn (Zea mays) of 0%. Moreover, the pest or weed control at 250 g/ha in experiment [9] (setting [14]) was found to be 15%; in experiment [10] (setting [14]) it was 100%; in the experiment with rice (Oryra sativa) (setting [14]) it was 15%; in experiment [11] (setting [14]), 0%.

Regarding `CN1C[C@H](c2cc(F)cc(Cl)c2)[C@@H](C(=O)Nc2ccccc2S(C)(=O)=O)C1=O` [Compound 979], the pest or weed control at 125 g/ha in the experiment with Kochia (Kochia scoparia) was 50%; in [1], 90%; in experiment [2], 90%; in [3] it was 40%; in experiment [4], 50%; in [5] it was 50%. The pest or weed control at 125 g/ha came to 40% in experiment [6] and 20% in experiment [8]. Also, the pest or weed control at 500 g/ha with Kochia (Kochia scoparia) came to 90%; in experiment [1] it was 90%; in [2], 100%; in experiment [3] it was 90%; in experiment [4], 90%; in experiment [5], 60%. This compound returned a Corn plant response rating (crop injury, 0 = no effect, 100 = complete kill) at 125 g/ha in the experiment on corn (Zea mays) of 30%. Also, the pest or weed control at 250 g/ha in [9] (setting [14]) came out at 60%; in [10] (setting [14]), 100%; in the experiment on rice (Oryra sativa) (setting [14]), 0%; in experiment [11] (setting [14]) it was 0%.
